According to patent US6696466B1, “Methods of treating select neuronal inflammatory disorders using hydroxyalkylquinolines” (priority 2000, dated 2004):
“And” between values parts separate entries of the source, which are not always exact repeats. Identical values can stand only once. “Also recorded” adds a separate entry of the source.

Key:
Format in all cases: in vivo, human
[1] = system: Herpes simplex I and II (HSV I and II); assay: Treatment and suppression of cold sores in patients; settings: for time to resolution of cold sore: Singulair resumed vs the patient's previous sores treated with antivirals
Method: Patient had recently discontinued use of Singulair® as a treatment for asthma. […] The cold sore resolved in three days after treatment with Singulair® was resumed. The rate of resolution was faster than the resolution of previous sores which were treated with antiviral treatments such as those marketed under the trademarks Zovirax® or Famvir® (approximately seven to ten days). During the subsequent two years, patient took Singulair® on a daily basis (10 mg, twice a day).
No cold sore was present at the time therapy was started. […] Within five days of termination of treatment, a cold sore developed.

carpal tunnel syndrome = assay: Treatment of patients with carpal tunnel syndrome; settings: for carpal tunnel symptoms, response to treatment: 10 mg per day, taken orally
Method: A carpenter who was experiencing the symptoms of carpal tunnel syndrome was treated with 10 mg of Singulair® per day, taken orally, for four weeks. They continued to perform their daily occupational activities throughout the period of treatment. […] Patient was then treated for short courses of 10 mg of Singulair® per day, whenever symptoms were present, until symptoms subsided.
A patient who worked as a billing clerk had carpal tunnel symptoms which had not responded to non-surgical methods of treatment. Patient was treated with Singulair® at 10 mg daily, taken orally.
A patient who works as a data entry clerk, experienced severe carpal tunnel symptoms. They ceased their occupational activities and began treatment with Singulair® at 10 mg per day, taken orally.
Patient was an insurance clerk who experienced severe carpal tunnel symptoms which had not abated, even after carpal tunnel decompression surgery. For years following surgery, they had experienced severe carpal tunnel symptoms.
Patient was an assembly line worker at an automobile production facility who was experiencing symptoms of carpal tunnel syndrome was treated with 10 mg of Singulair® per day taken orally. […] They required continuous treatment with 10 mg of Singulair® per day taken orally to maintain remission of their symptoms.

cubital tunnel syndrome = assay: Treatment of a patient with cubital tunnel syndrome; settings: 10 mg daily, taken orally, four weeks; single patient, prior NSAIDs and splints failed
Method: Patient was a golfer who experienced symptoms of cubital tunnel syndrome. […] Patient was treated with Singulair® at 10 mg daily, taken orally. […] No further treatment was required despite their return to their regular golfing activity.

thoracic outlet syndrome = assay: Treatment of a patient with thoracic outlet syndrome; settings: 10 mg per day, taken orally, four weeks; single patient
Method: Patient was treated with Singulair® at 10 mg per day taken orally. […] No further treatment was required.

[2] = system: post-herpetic neuralgia due to a latent Herpes infection; assay: Treatment of post-herpetic neuralgia in patients; settings: 10 mg per day, taken orally; single patient, neuralgia developed despite initial anti-viral agents
Method: (§1) Patient had post-herpetic neuralgia due to a latent Herpes infection. Neuralgia developed despite initial treatment with anti-viral agents as per standard treatment recommendations. Patient began treatment with Singulair® (10 mg per day, taken orally). The post-herpetic neuralgia resolved in ten days. No further treatment was required.
as §1, with “had postherpetic” for “had post-herpetic”, “in 14” for “in ten”

[3] = system: natural graying process of scalp hair; assay: Inhibition of graying of scalp hair in a patient; settings: 10 mg per day, taken orally, two years and four months continuous; single patient with graying of temple regions
Excerpt: Patient had noted the onset of graying of the temple regions of their hair.

| SMILES | time to resolution of cold sore ([1]; single patient) | carpal tunnel symptoms, response to treatment (carpal tunnel syndrome; four weeks, single patient) | carpal tunnel symptoms, response to treatment (carpal tunnel syndrome; six weeks, single patient, occupational activities continued) | carpal tunnel symptoms after cessation of treatment (carpal tunnel syndrome; after treatment was stopped, single patient) | carpal tunnel symptoms at follow-up (carpal tunnel syndrome; follow-up as in each example: forty weeks (Ex. 2), recheck two weeks after return to work on treatment (Ex. 3), continuing treatment (Ex. 4)) | carpal tunnel symptoms on resumption of treatment (carpal tunnel syndrome; treatment resumed after relapse, single patient) | cubital tunnel symptoms, response to treatment (cubital tunnel syndrome) | thoracic outlet syndrome symptoms, response to treatment (thoracic outlet syndrome) | cold sores under continuous daily treatment ([1]; 10 mg per day orally, ten months, patient with history of average two cold sores per month) | development of new cold sore under daily treatment ([1]; 10 mg, twice a day, two years, high ultraviolet light exposure, single patient) | time to cold sore after termination of treatment ([1]; after ten months of treatment, same patient) | cold sores after resumption of treatment ([1]; thirteen months after resumption of treatment, same patient) | time to resolution of post-herpetic neuralgia [2] | progression of graying of scalp hair [3] |
| --- | --- | --- | --- | --- | --- | --- | --- | --- | --- | --- | --- | --- | --- | --- |
| CC(=O)OCC(CCn1cnc2cnc(N)nc21)COC(C)=O [Famvir®] | seven to ten |  |  |  |  |  |  |  |  |  |  |  |  |  |
| CC(C)(O)c1ccccc1CC[C@@H](SCC1(CC(=O)O)CC1)c1cccc(C=Cc2ccc3ccc(Cl)cc3n2)c1 [Singulair®, 1-(((1(R)-(3-(2-(7-chloro-2-quinolinyl)ethenyl)phenyl)-3-(2-(2-hydroxy-2-propyl)phenyl)propyl)thio)methyl)cyclopropaneacetic acid] | three | complete remission of symptoms; also recorded: symptoms had completely resolved | complete resolution of their carpal tunnel symptoms; also recorded: symptoms abated | the symptoms recurred; also recorded: remained symptom-free thereafter; also recorded: symptoms rapidly returned | remains symptom-free | Symptoms abated | Symptoms were entirely abated | symptoms had completely resolved | remained free of cold sores | no new sore developed | five | remained free of cold sores | ten and 14 days | No progression of the graying process |
| Nc1nc2c(ncn2COCCO)c(=O)[nH]1 [Zovirax®] | seven to ten |  |  |  |  |  |  |  |  |  |  |  |  |  |
